Read-outs that look alike come from different tables or passages of the source.
Experiments:
[1] = molecular target: T1, histone deacetylase, subtype 1 (HDAC1) (Homo sapiens, UniProt Q13547); test: HDAC1-Flag assay (in vitro deacetylation assay); format: biochemical; conditions: concentration for 50% inhibition of deacetylation, substrate at Km, unit inferred, text gives nm, read-out: HDAC Inhibition
T1 construct: Flag; made in house
Protocol: Novel compounds were tested for their ability to inhibit histone deacetylase, subtype 1 (HDAC1) using an in vitro deacetylation assay. The enzyme source for this assay was an epitope-tagged human HDAC1 complex immuno-purified from stably expressing mammalian cells. The substrate consisted of a commercial product containing an acetylated lysine side chain (BIOMOL Research Laboratories, Inc., Plymouth Meeting, Pa.). Upon deacetylation of the substrate by incubation with the purified HDAC1 complex, a fluorophore is produced that is directly proportional to the level of deacetylation.

[2] = test system: murine erythroleukemia cell line SC9; test: MTS assay (Cell Titer 96 Aqueous One Solution Cell Proliferation Assay); format: cell-based; conditions: Mus musculus, SC9, 48 h, Table 3, concentration inhibiting proliferation of SC9 cells, unit inferred, unit nm
Protocol: The novel compounds of the present invention were tested for their ability to inhibit proliferation of the murine erythroleukemia cell line SC9.
The MTS assay, also referred to as the Cell Titer 96 Aqueous One Solution Cell Proliferation Assay, is a calorimetric method for determining the number of viable cells in proliferation, cytotoxicity or chemosensitivity assays. The MTS reagent contains a novel tetrazolium compound [3-(4,5-dimethylthiazol-2-yl)-5-(3-carboxymethoxyphenyl)-2-(4-sulfophenyl)-2H-tetrazolium, inner salt] and electron coupling reagent (phenazine ethosulfate;PES). Murine erythroleukemia cells (SC-9) were incubated with vehicle or increasing concentrations of compound for 48 hours. Cell proliferation was quantitated by adding a small amount of the MTS reagent directly to culture wells, incubating for 1-4 hours and then recording the absorbance at 490 nm with a 96-well plate reader. The quantity of formazan product, as measured by […] absorbance, is directly proportional to the number of living cells in culture.

[3] = Table 1, benzothiophene backbone

T1 sequence (Q13547 whole entry): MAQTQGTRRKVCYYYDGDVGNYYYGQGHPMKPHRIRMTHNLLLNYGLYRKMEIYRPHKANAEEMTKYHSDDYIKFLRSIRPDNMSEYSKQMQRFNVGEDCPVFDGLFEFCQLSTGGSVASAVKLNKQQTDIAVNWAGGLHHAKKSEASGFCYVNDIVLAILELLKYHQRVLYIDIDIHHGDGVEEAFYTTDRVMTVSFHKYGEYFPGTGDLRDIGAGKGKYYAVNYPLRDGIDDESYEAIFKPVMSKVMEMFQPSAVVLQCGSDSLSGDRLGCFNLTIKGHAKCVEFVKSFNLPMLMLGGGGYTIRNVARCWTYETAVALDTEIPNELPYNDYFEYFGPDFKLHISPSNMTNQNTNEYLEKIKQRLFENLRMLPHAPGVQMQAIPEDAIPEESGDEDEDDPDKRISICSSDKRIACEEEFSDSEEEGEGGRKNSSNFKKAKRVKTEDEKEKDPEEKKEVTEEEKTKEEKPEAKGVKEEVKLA

| SMILES | IC50 [1, 3] [nM] | IC50 [2] [nM] | IC50 ([1]; Table 2, thiophene backbone) [nM] |
| --- | --- | --- | --- |
| O=C(NO)c1cc2cc(CNCc3ccc(Cl)cc3)ccc2s1 [Compound 153] | 124 ± 24 | 531 | – |
| O=C(CN1CCN(C(=O)OCc2ccccc2)CC1)Nc1ccc2cc(C(=O)NO)sc2c1 [Compound 91] | 178 ± 55.8 | 899 | – |
| CCC(C(=O)Nc1ccc2sc(C(=O)NO)cc2c1)c1ccccc1 (stereo not drawn) [Compound 86] | 92.5 ± 23.3 | 836 ± 28.9 | – |
| COc1cccc(CNCc2ccc3cc(C(=O)NO)sc3c2)c1 [Compound 186] | 55.5 ± 9.1 | 93 | – |
| O=C(NO)c1cc2ccc(CNCCc3c[nH]c4ccccc34)cc2s1 [Compound 188] | 82.5 ± 16.2 | 191 | – |
| O=C(NO)c1cc2ccc(NC(=O)c3cccc4ccccc34)cc2s1 [Compound 33] | 79 ± 11.3 | 785 | – |
| O=C(NC1CCCc2ccccc21)c1ccc2cc(C(=O)NO)sc2c1 (stereo not drawn) [Compound 135] | – | 836 | – |
| O=C(CN(CC(=O)Nc1ccccc1)c1ccc2sc(C(=O)NO)cc2c1)Nc1ccccc1 [Compound 177] | 57.3 ± 18.5 | 259 ± 48.7 | – |
| O=C(Cc1ccc(Cl)cc1)Nc1ccc2sc(C(=O)NO)cc2c1 [Compound 95] | 79.5 ± 33.2 | – | – |
| COc1ccc(CN(Cc2ccc3cc(C(=O)NO)sc3c2)C2CCCCC2)cc1 [Compound 193] | 99 | – | – |
| O=C(NCCCc1ccccc1)c1ccc2sc(C(=O)NO)cc2c1 [Compound 112] | 74.5 ± 7.7 | – | – |
| COc1ccc(N2CCN(CC(=O)Nc3ccc4cc(C(=O)NO)sc4c3)CC2)cc1 [Compound 124] | 177 ± 16 | – | – |
| O=C(NO)c1ccc(-c2cccc(CN(CCc3ccccc3)Cc3cnc4ccccc4c3)c2)s1 [Compound 72] | – | – | 570 |
| O=C(NO)c1cc2cc(N(Cc3ccccc3)Cc3ccccc3)ccc2s1 [Compound 20] | 1650 ± 1160 | – | – |
| O=C(NO)c1cc2cc(CNCCN3CCOCC3)ccc2s1 [Compound 163] | 734 ± 34.6 | – | – |
| O=C(Nc1ccc2sc(C(=O)NO)cc2c1)c1ccccc1 [Compound 3] | 106 ± 13.4 | – | – |
| O=C(NO)c1cc2cc(CNCc3ccccc3Cl)ccc2s1 [Compound 149] | 96.5 ± 34.4 | – | – |
| COc1ccc(OC)c(CC(=O)Nc2ccc3cc(C(=O)NO)sc3c2)c1 [Compound 51] | 62 | – | – |
| O=C(NO)c1cc2cc(CNCc3cccc(Cl)c3)ccc2s1 [Compound 150] | 144.5 ± 0.7 | – | – |
| COc1ccc(CCNCc2ccc3sc(C(=O)NO)cc3c2)cc1OC [Compound 143] | 325 ± 57.4 | – | – |
| O=C(/C=C/c1ccccc1)Nc1ccc2sc(C(=O)NO)cc2c1 [Compound 16] | 185 ± 52.3 | – | – |
| O=C(NO)C(=O)Nc1ccc2cc(C(=O)NO)sc2c1 [Compound 24] | 1170 ± 214 | – | – |
| O=C(NCCCCc1ccccc1)c1ccc2sc(C(=O)NO)cc2c1 [Compound 175] | 154 ± 8.4 | – | – |
| O=C(NCCC(c1ccccc1)c1ccccc1)c1ccc2sc(C(=O)NO)cc2c1 [Compound 174] | 428 ± 102 | – | – |

| SMILES | IC50 [1, 3] [nM] | IC50 [2] [nM] | IC50 ([1]; Table 2, thiophene backbone) [nM] |
| --- | --- | --- | --- |
| O=C(NO)c1cc2cc(CNCC(c3ccccc3)c3ccccc3)ccc2s1 [Compound 152] | 415 ± 91.6 | – | – |
| O=C(NO)c1cc2ccc(NC(=O)C3(c4ccc(Cl)cc4)CC3)cc2s1 [Compound 125] | 164 ± 1.4 | – | – |
| O=C(Nc1ccc2cc(C(=O)NO)sc2c1)c1cccnc1 [Compound 29] | 262 ± 33.9 | – | – |
| O=C(NCCCc1ccccc1)c1ccc2cc(C(=O)NO)sc2c1 [Compound 160] | 90 ± 11.3 | – | – |
| O=C(/C=C/c1ccc(C(=O)NO)s1)NCCCc1ccccc1 [Compound 66] | – | – | 70 |
| O=C(NO)c1cc2ccc(NS(=O)(=O)c3ccc(-c4ccccc4)cc3)cc2s1 [Compound 12] | 45 ± 32.5 | – | – |
| CN(O)C(=O)c1cc2ccc(NC(=O)Cc3ccccc3)cc2s1 [Compound 102] | 14400 | – | – |
| O=C(NCc1nc2ccccc2[nH]1)c1ccc2cc(C(=O)NO)sc2c1 [Compound 133] | 30.3 ± 6.5 | – | – |
| O=C(NO)c1ccc(-c2cccc(CN(CCc3ccccc3)Cc3ccnc4ccccc34)c2)s1 [Compound 73] | – | – | 705 ± 92.6 |
| COc1cccc(CC(=O)Nc2ccc3sc(C(=O)NO)cc3c2)c1 [Compound 53] | 54 | – | – |
| O=C(CCc1ccc(C(=O)NO)s1)NCC(c1ccccc1)c1ccccc1 [Compound 83] | – | – | 581 |
| O=C(NO)c1cc2cc(NS(=O)(=O)c3ccc(-c4ccccc4)cc3)ccc2s1 [Compound 18] | 91 ± 49.4 | – | – |
| O=C(Nc1ccccc1)c1ccc2cc(C(=O)NO)sc2c1 [Compound 137] | 615 ± 207 | – | – |
| O=C(/C=C/c1ccc(C(=O)NO)s1)Nc1ccccc1 [Compound 63] | – | – | 397 |
| O=C(NCCc1ccccn1)c1ccc2cc(C(=O)NO)sc2c1 [Compound 134] | 146 ± 10.3 | – | – |
| O=C(NO)c1ccc2sc(C(=O)NO)cc2c1 [Compound 42] | 424 | – | – |
| O=C(Cc1ccccn1)Nc1ccc2cc(C(=O)NO)sc2c1 [Compound 109] | 59 ± 15.5 | – | – |
| CC(C)(C)OC(=O)CN(CC(=O)Nc1ccc2cc(C(=O)NO)sc2c1)CC(=O)OC(C)(C)C [Compound 118] | 236 ± 28.9 | – | – |
| O=C(NO)c1cc2ccc(C(=O)N3CCCCC3)cc2s1 [Compound 136] | 424 ± 72.7 | – | – |
| O=C(NCc1ccc(Cl)cc1)c1ccc2sc(C(=O)NO)cc2c1 [Compound 171] | 63.5 ± 4.9 | – | – |
| O=C(NCC(c1ccccc1)c1ccccc1)c1ccc2cc(C(=O)NO)sc2c1 [Compound 130] | 162 ± 40.3 | – | – |
| O=C(NCc1ccccn1)c1ccc2cc(C(=O)NO)sc2c1 [Compound 94] | 85.7 ± 23.5 | – | – |
| O=C(NO)c1cc2cc(CNc3cccc(OCc4ccccc4)c3)ccc2s1 [Compound 165] | 269 ± 63.6 | – | – |
| O=C(Nc1ccc(C(=O)NO)s1)c1ccccc1 [Compound 56] | – | – | 714 ± 122 |

| SMILES | IC50 [1, 3] [nM] | IC50 [2] [nM] | IC50 ([1]; Table 2, thiophene backbone) [nM] |
| --- | --- | --- | --- |
| O=C(Nc1cccc2cccnc12)c1ccc2cc(C(=O)NO)sc2c1 [Compound 182] | 1070 ± 21.9 | – | – |
| O=C(Nc1ccc(C(=O)NO)s1)c1ccc2ccccc2c1 [Compound 58] | – | – | 730 ± 127 |
| O=C(NO)c1cc2ccc(NS(=O)(=O)Cc3ccccc3)cc2s1 [Compound 11] | 41 ± 11.3 | – | – |
| O=C(NO)c1cc2cc(CNC(c3ccccc3)c3ccccc3)ccc2s1 [Compound 140] | 869 ± 108 | – | – |
| O=C(CCc1ccc(C(=O)NO)s1)Nc1cccc(OCc2ccccc2)c1 [Compound 195] | – | – | 127 ± 11.3 |
| O=C(CCc1ccc(C(=O)NO)s1)NCCc1ccccc1 [Compound 81] | – | – | 690 |
| Cc1ccc(S(=O)(=O)Nc2ccc3sc(C(=O)NO)cc3c2)cc1 [Compound 44] | 162 ± 54.4 | – | – |
| O=C(CN1CCN(c2ccccc2)CC1)Nc1ccc2cc(C(=O)NO)sc2c1 [Compound 46] | 37 | – | – |
| O=C(NO)c1cc2ccc(C(=O)N3CCN(c4ccc(Cl)cc4)CC3)cc2s1 [Compound 158] | 441 ± 98.2 | – | – |
| O=C(NC1CCc2ccccc21)c1ccc2sc(C(=O)NO)cc2c1 (stereo not drawn) [Compound 172] | 1360 ± 47.3 | – | – |
| O=C(/C=C/c1ccc(C(=O)NO)s1)NCc1ccccc1 [Compound 64] | – | – | 206 |
| O=C(Nc1ccccc1)c1ccc2sc(C(=O)NO)cc2c1 [Compound 104] | 582 ± 9.8 | – | – |
| O=C(Nc1ccc2cc(C(=O)NO)sc2c1)c1ccccc1 [Compound 5] | 204 ± 48.7 | – | – |
| O=C(NO)c1cc(-c2ccccc2)cs1 [Compound 199] | – | – | 9260 ± 1180 |
| COc1ccc(CC(=O)Nc2ccc3cc(C(=O)NO)sc3c2)cc1OC [Compound 49] | 35 | – | – |
| O=C(Nc1ccc2cc(C(=O)NO)sc2c1)OCc1ccccc1 [Compound 30] | 113 ± 33.2 | – | – |
| O=C(NO)c1cc2ccc(C(=O)N3CCN(c4ccccc4)CC3)cc2s1 [Compound 139] | 176 ± 13.4 | – | – |
| O=C(NC(Cc1ccccc1)c1ccccc1)c1ccc2cc(C(=O)NO)sc2c1 (stereo not drawn) [Compound 131] | 223 ± 11.3 | – | – |
| O=C(Cc1ccccc1)Nc1ccc2sc(C(=O)NO)cc2c1 [Compound 15] | 31 ± 7 | – | – |
| O=C(NO)c1cc2ccccc2s1 [Compound 1] | 672 ± 98.9 | – | – |
| CCOC(=O)Nc1ccc2cc(C(=O)NO)sc2c1 [Compound 31] | 350 ± 13.4 | – | – |
| O=C(Nc1ccc2sc(C(=O)NO)cc2c1)c1ccc2ccccc2n1 [Compound 38] | 444 | – | – |
| O=C(NO)c1cc2ccc(C(=O)N3CCC(Cc4ccccc4)CC3)cc2s1 [Compound 190] | 170 ± 38.8 | – | – |
